Laboratory results reported in patent publication US6750228B1, “Aromatic sulfone hydroxamic acid metalloprotease inhibitor” (priority 1997, dated 2004).

Experiments:
MMP-1 = biological target: T1, MMP-1 (Homo sapiens, UniProt P03956); assay: biochemical; conditions: recombinant human MMP-1, MCA peptide substrate 4 μM, pH 7.5, room temperature; read-out: MMP-1 IC50
T1 construct: made in house; host or cells: transfected HT-1080 cells (provided by Dr. Harold Welgus, Washington University)
T1 sequence (P03956 100-469): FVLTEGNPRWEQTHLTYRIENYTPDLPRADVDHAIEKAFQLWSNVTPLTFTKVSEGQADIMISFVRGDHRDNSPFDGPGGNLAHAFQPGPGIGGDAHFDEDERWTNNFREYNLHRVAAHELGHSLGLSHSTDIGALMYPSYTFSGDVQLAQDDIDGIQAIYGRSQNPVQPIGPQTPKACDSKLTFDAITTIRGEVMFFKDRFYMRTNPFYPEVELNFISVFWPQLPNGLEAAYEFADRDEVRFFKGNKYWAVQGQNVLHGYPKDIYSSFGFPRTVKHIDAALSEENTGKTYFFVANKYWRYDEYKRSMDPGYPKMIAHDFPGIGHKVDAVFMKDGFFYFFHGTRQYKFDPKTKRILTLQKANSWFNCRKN
Outline: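 Substrate MCA-PLGL-Dpa-AR-NH2 at 4 μM final; pH 7.5 Tris/NaCl/CaCl2 buffer with 0.05% polyethyleneglycol lauryl ether, 1% DMSO, room temperature. MMP-1 was expressed in transfected HT-1080 cells and APMA-activated.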

MMP-13 = biological target: T2, MMP-13 (Homo sapiens, UniProt P45452); assay: biochemical; conditions: recombinant human MMP-13, MCA peptide substrate 4 μM, pH 7.5, room temperature; read-out: MMP-13 IC50
T2 construct: made in house; host or cells: baculovirus / insect cells
Outline: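 APMA- or trypsin-activated enzymes were preincubated with inhibitor for 5 min at room temperature, then the fluorogenic substrate MCA-Pro-Leu-Gly-Leu-Dpa-Ala-Arg-NH2 was added to a final 4 μM.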

MMP-2 = biological target: T3, MMP-2 (Homo sapiens, UniProt P08253); assay: biochemical; conditions: recombinant human MMP-2, MCA peptide substrate 4 μM, pH 7.5, room temperature; read-out: MMP-2 IC50
T3 construct: made in house; provided by Dr. Gregory Goldberg, Washington University
T3 sequence (P08253 110-660): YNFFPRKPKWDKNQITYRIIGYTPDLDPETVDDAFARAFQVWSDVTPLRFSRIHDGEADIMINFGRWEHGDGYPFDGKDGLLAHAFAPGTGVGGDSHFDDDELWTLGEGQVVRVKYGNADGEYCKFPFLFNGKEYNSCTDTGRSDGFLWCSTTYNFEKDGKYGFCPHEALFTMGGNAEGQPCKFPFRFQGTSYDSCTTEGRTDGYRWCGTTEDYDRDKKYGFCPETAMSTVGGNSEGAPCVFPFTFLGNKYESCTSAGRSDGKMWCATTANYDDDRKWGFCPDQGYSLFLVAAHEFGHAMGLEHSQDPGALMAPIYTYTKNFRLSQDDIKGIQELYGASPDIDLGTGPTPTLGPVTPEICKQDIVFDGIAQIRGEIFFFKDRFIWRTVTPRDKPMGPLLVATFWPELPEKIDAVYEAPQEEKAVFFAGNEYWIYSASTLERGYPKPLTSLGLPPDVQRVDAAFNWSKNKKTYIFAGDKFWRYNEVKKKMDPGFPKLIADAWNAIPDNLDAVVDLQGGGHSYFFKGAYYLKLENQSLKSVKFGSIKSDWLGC
Outline: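 APMA- or trypsin-activated human MMPs (MMP-1 from transfected HT-1080 cells, MMP-2 from transfected cells) preincubated with inhibitor in 1% DMSO at room temperature, then 4 μM MCA-Pro-Leu-Gly-Leu-Dpa-Ala-Arg-NH2 added in Tris/NaCl/CaCl2 buffer pH 7.5. IC50 from fluorescence reduction versus inhibitor concentration.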

MMP-7 = biological target: T4, MMP-7 (Homo sapiens, UniProt P09237); assay: In vitro metalloprotease inhibition, pH 7.5 with 0.02% 2-mercaptoethanol; assay type: biochemical; conditions: selectively inhibit one or more of MMP-2, MMP-9 and MMP-13
T4 construct: made in house; host or cells: E. coli (clone a gift of Dr. Steven Shapiro, Washington University)
T4 sequence (P09237 95-267): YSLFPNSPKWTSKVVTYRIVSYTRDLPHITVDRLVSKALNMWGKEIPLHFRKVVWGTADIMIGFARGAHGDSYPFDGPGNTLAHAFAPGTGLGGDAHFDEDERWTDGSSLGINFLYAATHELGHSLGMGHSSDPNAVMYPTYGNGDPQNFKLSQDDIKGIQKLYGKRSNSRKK
Procedure: The compounds prepared in the manner described in the Examples above were assayed for activity by an in vitro assay. […] Briefly, 4-aminophenylmercuric acetate (APMA) or trypsin-activated MMPs were incubated with various concentrations of the inhibitor compound at room temperature for 5 minutes.
MMP-1 expressed in transfected HT-1080 cells was provided by Dr. Harold Welgus of Washington University, St. Louis, Mo. The enzyme was also activated using APMA and was then purified over a hydroxamic acid column. Dr. Welgus also provided transfected HT-1080 cells that expressed MMP-9. Transfected cells that expressed MMP-2 were provided by Dr. Gregory Goldberg, also of Washington University. Studies with MMP-7 were carried out at pH 7.5 in the presence of 0.02% 2-mercaptoethanol using conditions otherwise similar to those used for the other enzymes. […]
In the absence of inhibitor activity, a fluorogenic peptide was cleaved at the gly-leu peptide bond, separating the highly fluorogenic peptide from a 2,4-dinitrophenyl quencher, resulting in an increase of fluorescence intensity (excitation at 328 nm/emission at 415 nm). Inhibition was measured as a reduction in fluorescent intensity as a function of inhibitor concentration, using a Perkin Elmer L550 plate reader. The IC50 values were calculated from those values. […]

SMILES | IC50 (MMP-1) [µM] | IC50 (MMP-13) [µM] | IC50 (MMP-2) [µM] | inhibition of MMP-7 compared with MMP-2, MMP-9 and MMP-13 (selectivity) (MMP-7)
N#Cc1cccc(S(=O)(=O)N2CCN(c3ccc(S(=O)(=O)C4(C(=O)NO)CCOCC4)cc3)CC2)c1 [Example 672] | > 10 | 0.0067 | 0.06 | substantially less inhibition
Cn1cnc(S(=O)(=O)N2CCN(c3ccc(S(=O)(=O)C4(C(=O)NO)CCOCC4)cc3)CC2)c1 [Example 684] | > 10 | 0.06 | 1.45 | substantially less inhibition
